Results as given in patent US7618968B2, “Aryl triazines as LPAAT-β inhibitors and uses thereof” (Cell Therapeutics, Inc., priority 2001, dated 2009).

Target: T1, LPAAT-β (Homo sapiens, UniProt O15120)
T1 construct: the full-length human LPAAT-β cDNA was amplified by PCR; poly-histidine tag (from pFastBac HTc vector) (N); made in house; host or cells: Sf9 insect cells (baculovirus); membrane fraction used
T1 sequence (O15120 24-278): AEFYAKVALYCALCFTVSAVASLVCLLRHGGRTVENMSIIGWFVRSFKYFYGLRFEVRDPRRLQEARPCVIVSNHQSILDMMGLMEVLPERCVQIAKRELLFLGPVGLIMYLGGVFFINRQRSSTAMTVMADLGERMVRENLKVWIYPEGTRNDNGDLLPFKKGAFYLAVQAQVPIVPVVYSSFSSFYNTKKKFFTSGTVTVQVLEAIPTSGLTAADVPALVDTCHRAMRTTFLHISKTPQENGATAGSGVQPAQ
Assay: LPAAT-β cell-free assay (colorimetric primary screen, radiometric/fluorescent TLC secondary assay)
Format: biochemical
Settings: Sf9 cell membrane overexpressing LPAAT-β
Text: A. Production of Recombinant LPAAT-β for Assays
For the construction of Baculovirus expression vectors, the full-length human LPAAT-β cDNA was amplified by PCR from the DNA template pCE9.LPAAT-β (West et al., DNA Cell Biol. 16:691-701 (1997)) using the primers 5′-[…] […] […] […]-3′ (olpb1F; SEQ ID NO:1) and 5′-[…] […] […]-3′ (olpb1R; SEQ ID NO:2). The ˜870 bp fragment generated was reamplified by PCR using the primers 5′[…] […] […] […] ATC-3′ (olpb2F; SEQ ID NO:3) and 5′-[…] […] […]-3′ (olpb1R; SEQ ID NO:2). The ˜890 bp fragment generated was then cleaved with Sal I and Xba I for insertion into pFastBac™ HTc vector (Life Technologies, Gaithersberg, Md.) between the Sal I and Xba I sites for the generation of the plasmid pFB.LPAAT-β. This plasmid was then transformed into E. coli DH10Bac™ (Life Technologies, Gaithersberg, Md.) for the generation of recombinant Bacmid DNA for transfection in HighFive (Invitrogen, San Diego, Calif.) or SF9 insect cells for the production of recombinant Baculovirus stocks using the protocol described in the Bac-to-Bac® Baculovirus Expression System (Life Technologies, Gaithersberg, Md.), a eukaryotic expression system for generating recombinant baculovirus through site-specific transposition in E. coli. Viral stocks harvested from the transfected cells can then be used to infect fresh insect cells for the subsequence expression of LPAAT-β fusion protein with a poly-histidine tag and a myc-epitope near its N-terminus. The membrane fraction from these Sf9 cells would be the source of LPAAT enzyme.
B. Preparation of Cell Membranes from Sf9 Cells
For the preparation of membranes from Sf9 Cells, all steps are performed on ice or at 4° C. Sf9 cell pellets (˜10^8 cells) were thawed and resuspended in 1-2 ml of buffer A (20 mM Hepes, pH 7.5, 1 mM DTT, 1 mM EDTA, 20% w/v glycerol, 1 mM Benzamidine, 1 μg/ml soybean trypsin inhibitor (SBTI), 1 μg/ml pepstatin A) w/o DTT but with 1 mM Pefabloc. The cells were lysed by sonication using a Branson Sonifier at output=2, duty cycle=2, 10 pulses each at 10s. with the tip of small sonicator probe submerged but not touching the walls. DTT was then added to 1 mM from a 1 M stock. The samples were centrifuged at 1500 rpm for 5 min. The low speed supernatant was saved and centrifuged (TLA 100.3 rotor, polycarbonate tubes, 2 ml/tube or 1.5 ml/tube minimum) at 100000×g for 1 hr. The high speed pellet was resuspend in Buffer A with a probe sonicator (10 pulses @ output #2 and duty cycle 20%) as a source of LPAAT enzyme.
C. Assay of LPAAT-β Activity
LPAAT-β catalyzes the transfer of an acyl group from a donor such as acyl-CoA to LPA. The transfer of the acyl group from acyl-CoA to LPA leads to the release of free CoA, which can be reacted with the thiol reagent, 5,5′-dithiobis(2-nitrobenzoic acid) (DTNB). The reaction between DTNB and the free sulfhydryl group from CoA generates a yellow-colored product, 3-carboxylato-4-nitrothiophenolate (CNP), that absorbs at 413 nm. LPAAT-β derived from Sf9 cell membrane overexpressing LPAAT-β were resuspended in HEPES saline buffer (20 mM HEPES pH 7.5, 150 mM NaCl), 1 mg/ml BSA and 72 μl aliquots were distributed into 96-well microtiter plates. 8 μl of compound of interest at 200 μM dissolved in 100% DMSO was added into each well. 20 μl of 1 mM 18:1-CoA and 1 mM sn-1-18:1 lysoPA was then added to each well to initiate the reaction and allowed to run at room temperature for 25 min. 100 μl of 1 mM DTNB in 100% ethanol was then added to each well to quench the reaction and for color development. The absorbance at 405 nm, measured using a spectrophotometer plate reader, is proportional to the activity of LPAAT-β in the sample. This colorimetric assay was used for the high throughput screening of LPAAT inhibitors.

IC50 [nM]	SMILES
1100	CSc1nc(Nc2ccc(Br)cc2)nc(-c2cc(Cl)ccc2C)n1 [Example 29, (4-Bromo-phenyl)-[4-(5-chloro-2-methyl-phenyl)-6-methylsulfanyl-[1,3,5]triazin-2-yl]-amine]
1300	Cc1ccc(Cl)cc1-c1nc(N)nc(Nc2ccc(COC(=O)[C@H](C)N)cc2)n1 [Example 77, 2-Amino-propionic acid 4-[4-amino-6-(5-chloro-2-methyl-phenyl)-[1,3,5]-triazin-2-ylamino]-benzyl ester]
700	CCc1nc(Nc2ccc(Br)cc2)nc(-c2cc(Cl)ccc2C)n1 [Example 24]
440	Nc1nc(Nc2ccc(CO)cc2)nc(-c2cc(Cl)ccc2Cl)n1 [Example 46, {4-[4-Amino-6-(2,5-dichloro-phenyl)-[1,3,5]triazin-2-ylamino]-phenyl}-methanol]
1800	CCOc1ccc(Cl)cc1-c1nc(N)nc(Nc2ccc(CO)cc2)n1 [Example 53, {4-[4-Amino-6-(5-chloro-2-ethoxy-phenyl) [1,3,5]triazin-2-ylamino]-phenyl}-methanol]
50	Nc1nc(Nc2ccc(Cl)cc2)nc(-c2cc(Cl)ccc2Cl)n1 [Example 4, 6-(2,5-Dichlorophenyl)-N-(4-chlorophenyl)-[1,3,5]triazine-2,4-diamine]
750	CCc1cccc(Nc2nc(N)nc(-c3cc(Cl)ccc3C)n2)c1 [Example 66, 6-(5-Chloro-2-methyl-phenyl)-N-(3-ethyl-phenyl)-[1,3,5]triazine-2,4-diamine]
100	N#Cc1ccc(Nc2nc(N)nc(-c3cc(Cl)ccc3Cl)n2)cc1 [Example 89, 4-[4-Amino-6-(2,5-dichlorophenyl)-[1,3,5]triazin-2-ylamino]-benzonitrile]
14	Cc1nc(Nc2ccc(Br)cc2)nc(-c2cc(Cl)ccc2C)n1 [Example 23]
70	Nc1nc(Nc2ccc(Cl)cc2)nc(-c2cc(Cl)ccc2F)n1 [Example 85, 6-(5-Chloro-2-fluoro-phenyl)-N-(4-chloro-phenyl)-[1,3,5]triazine-2,4-diamine]
320	Cc1ccc(Nc2nc(N)nc(-c3cc(Cl)ccc3C)n2)cc1 [Example 39, 6-(5-Chloro-2-methyl-phenyl)-N-p-tolyl-[1,3,5]triazine-2,4-diamine]
970	Cc1ccc(Cl)cc1-c1nc(N)nc(Nc2ccc(COC(=O)[C@@H](N)CCCNC(=N)N)cc2)n1 [Example 75, (S)-2-Amino-5-guanidino-pentanoic acid 4-[4-amino-6-(5-chloro-2-methyl-phenyl)-[1,3,5]triazin-2-ylamino]-benzyl ester]
1300	Cc1ccc(Cl)cc1-c1nc(N)nc(Nc2ccc(CC(=O)O)cc2)n1 [Example 60, {4-[4-Amino-6-(5-chloro-2-methyl-phenyl)-[1,3,5]triazin-2-ylamino]-phenyl}-acetic acid]
600	COCCOc1ccc(Cl)cc1-c1nc(N)nc(Nc2ccc(Cl)cc2)n1 [Example 65, 6-[5-Chloro-2-(2-methoxy-ethoxy)-phenyl]-N-(4-chloro-phenyl) [1,3,5]triazine-2,4-diamine]
280	C#Cc1ccc(Nc2nc(N)nc(-c3cc(Cl)ccc3C)n2)cc1 [Example 42, 6-(5-Chloro-2-methyl-phenyl)-N-(4-ethynyl-phenyl)-[1,3,5]triazine-2,4-diamine]
2300	COc1ccc(Cl)cc1-c1nc(N)nc(Nc2ccccc2)n1 [Example 2, 6-(5-Chloro-2-methoxyphenyl)-N-phenyl-[1,3,5]triazine-2,4-diamine]

IC50 [nM]	SMILES
200	COc1nc(Nc2ccc(Br)cc2)nc(-c2cc(Cl)ccc2C)n1 [Example 21]
76	COc1ccc(Cl)cc1-c1nc(N)nc(Nc2ccc(Br)cc2)n1 [Example 10, N-2-(4-Bromophenyl)-6-(5-chloro-2-methoxyphenyl)-[1,3,5]triazine-2,4-diamine]
55	Cc1ccc(Cl)cc1-c1nc(N)nc(Nc2ccc3cn[nH]c3c2)n1 [Example 13, 6-(5-Chloro-2-Methyl-Phenyl)-N-(1H-Indazol-6-yl)-[1,3,5]Triazine-2,4-Diamine]
400	Cc1ccc(Nc2nc(N)nc(-c3cc(Cl)ccc3C)n2)cc1C [Example 59, 6-(5-Chloro-2-methyl-phenyl)-N-(3,4-dimethyl-phenyl)-[1,3,5]triazine-2,4-diamine]
200	CCCOc1ccc(Cl)cc1-c1nc(N)nc(Nc2ccc(Cl)cc2)n1 [Example 50, N-(4-Chloro-phenyl)-6-(5-chloro-2-propoxy-phenyl)-[1,3,5]triazine-2,4-diamine]
2100	Cc1ccc(Cl)cc1-c1nc(N)nc(Nc2ccc(COC(=O)C[C@H](N)C(=O)O)cc2)n1 [Example 73, (S)-2-Amino-succinic acid 4-{4-[4-amino-6-(5-chloro-2-methyl-phenyl)-[1,3,5]triazin-2-ylamino]-benzyl}ester]
120	CCOc1ccc(Cl)cc1-c1nc(N)nc(Nc2ccc([N+](=O)[O-])cc2)n1 [Example 54, 6-(5-Chloro-2-ethoxyphenyl)-N-(4-nitrophenyl)-[1,3,5]triazine-2,4-diamine]
640	COCc1ccc(Nc2nc(N)nc(-c3cc(Cl)ccc3C)n2)cc1 [Example 78, 6-(5-Chloro-2-methyl-phenyl)-N-(4-methoxy-methyl-phenyl)-[1,3,5]triazine-2,4-diamine]
4	Cc1ccc(Cl)cc1-c1nc(Cl)nc(Nc2ccc3cn[nH]c3c2)n1 [Example 26, [4-Chloro-6-(5-chloro-2-methyl-phenyl)-[1,3,5]triazin-2-yl]-(1H-indazol-6-yl)-amine]
400	CNC(=O)c1cc(Nc2nc(N)nc(-c3cc(Cl)ccc3C)n2)ccc1Cl [Example 43, 5-[4-amino-6-(5-chloro-2-methylphenyl)-[1,3,5]triazin-2-ylamino]-2-chloro-N-methylbenzamide]
110	Nc1nc(Nc2ccc3cn[nH]c3c2)nc(-c2cc(Cl)ccc2Cl)n1 [Example 48, 6-(2,5-Dichloro-phenyl)-N-(1H-indazol-6-yl)-[1,3,5]triazine-2,4-diamine]
800	CCOc1ccc(Cl)cc1-c1nc(N)nc(Nc2ccc3c(c2)OCO3)n1 [Example 55, N-Benzo[1.3]dioxol-5-yl-6-(5-chloro-2-ethoxy-phenyl)[1,3,5]triazine-2,4-diamine]
22	COc1ccc(Cl)cc1-c1nc(N)nc(Nc2ccc([N+](=O)[O-])cc2)n1 [Example 3, 6-(5-Chloro-2-methoxyphenyl)-N-(4-nitrophenyl)-[1,3,5]triazine-2,4-diamine]
1400	Cc1ccc(Cl)cc1-c1nc(N)nc(Nc2ccc(COC(=O)[C@@H](N)CC(=O)O)cc2)n1 [Example 72, (S)-2-Amino-succinic acid 1-{4-[4-amino-6-(5-chloro-2-methyl-phenyl)-[1,3,5]triazin-2-ylamino]-benzyl}ester]
2300	CCOc1ccc(Cl)cc1-c1nc(N)nc(Nc2ccc(C)cc2)n1 [Example 61, 6-(5-Chloro-2-ethoxyphenyl)-N-p-tolyl-[1,3,5]triazine-2,4-diamine]
